One may read the GI50 as the concentration that inhibits growth by half.

The values that follow come from ChEMBL document CHEMBL1201862, “PubChem BioAssay data set” (2004).

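Protocol summary: plate cells (96-well), add compound at 5 concentrations, incubate 48 h, interpolate endpoints linearly. Here, GI50 denotes the concentration required for 50% inhibition of growth.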 Calls of active or inactive are those of the source. Cut-off read from the data, not from the text of the source: active = GI50 up to about 1.1 µM and inactive = higher.

Holding throughout (assay): DTP human tumour cell line panel, 48 h
In assay [1] the test system is Malme-3M.
The test system of assay [2] is CCRF-CEM.
Assay [3] relates to IGROV-1.
The subject of assay [4] is HOP-62.
Assay [5] deals with UACC-257.
Assay [6] has as its system HCT-116.
Assay [7] deals with BT-549.
Assay [8] concerns OVCAR-4.
Assay [9] has as its system MDA-MB-231.
In assay [10] the test system is NCI-H522.
The test system of assay [11] is NCI/ADR-RES.
Assay [12] relates to T47D.
Assay [13] deals with RXF 393.
The subject of assay [14] is HCT-15.
In assay [15] the test system is OVCAR-5.
Assay [16] concerns HCC 2998.
The subject of assay [17] is DU-145.
Assay [18] deals with CAKI-1.
Assay [19] concerns OVCAR-3.
Assay [20] concerns SK-MEL-5.

Turning to `C=C[C@H]1CN2CCc3c([nH]c4c([C@H]5CCCN5C)c(O)ccc34)[C@@H]2C[C@@H]1C[C@H]1c2[nH]c3ccccc3c2CCN1C` [STRYCHNOPENTAMINE], the GI50 in assay [1] was 1.76 µM (inactive); in assay [2], 0.719 µM (active); in assay [3], 1.59 µM (inactive); in assay [4], 1.55 µM (inactive); in assay [5], 1.83 µM (inactive); in assay [6], 1.33 µM (inactive). The GI50 in [7] was 1.94 µM (inactive); in assay [8] it was 1.74 µM (inactive); in assay [9], 1.81 µM (inactive); in [10], 1.79 µM (inactive); in [11], 1.74 µM (inactive); in assay [12], 1.8 µM (inactive). The GI50 in [13] is 1.04 µM (active); in assay [14], 0.899 µM; in assay [15] it was 1.72 µM (inactive); in [16] it was 0.388 µM (active); in assay [17], 1.63 µM (inactive); in [18], 1.72 µM (inactive). Besides, the GI50 in assay [19] is 1.58 µM (inactive).

For `O=C(O)CSC1=NC(=O)C2(NN1)c1ccccc1-c1ccccc12`, the GI50 in assay [1], in [2], in assay [3], in assay [4], in assay [5] and in [6] was > 10 µM (inactive) each time. The GI50 in assay [7], in assay [8], in [9], in assay [10], in assay [11] and in [12] was > 10 µM (inactive) throughout. For the same molecule, the GI50 is > 10 µM (inactive) in assay [13]; over 10 µM in assay [14]; > 10 µM (inactive) in [16]; > 10 µM (inactive) in assay [17]; > 10 µM (inactive) in assay [20]; > 10 µM (inactive) in assay [18].

With `Clc1ccc(NCc2nnc(CCCCCCCCc3nnc(CNc4ccc(Cl)cc4)o3)o2)cc1`, the GI50 in assay [1], in [2], in [4], in assay [5], in [6] and in [7] was > 100 µM (inactive) each time. The GI50 in [8], in assay [9], in assay [10], in assay [11], in assay [12] and in assay [13] was > 100 µM (inactive) in each case. Further, the GI50 is over 100 µM in assay [14]; > 100 µM (inactive) in [15]; > 100 µM (inactive) in assay [16]; > 100 µM (inactive) in [17]; > 100 µM (inactive) in [20]; > 100 µM (inactive) in assay [18]. The GI50 in assay [19] was > 100 µM (inactive).

`Brc1c(C#CCC(c2ccccc2)(c2ccccc2)c2ccccc2)ccc(C#CCC(c2ccccc2)(c2ccccc2)c2ccccc2)c1Br`: the GI50 in [1], in [2], in assay [3], in assay [5], in assay [6] and in assay [7] was > 100 µM (inactive) throughout. For the same molecule, the GI50 in assay [8], in assay [9], in assay [10], in assay [11], in [12] and in assay [13] was > 100 µM (inactive) throughout. Besides, the GI50 is over 100 µM in [14]; > 100 µM (inactive) in assay [15]; > 100 µM (inactive) in [16]; > 100 µM (inactive) in assay [17]; > 100 µM (inactive) in assay [20]; > 100 µM (inactive) in assay [18]. Besides, in assay [19], the GI50 was > 100 µM (inactive).

On to `CC1=NN(c2ccccc2Cl)C2(C1)C(Cl)C(=O)N2c1nc2ccccc2s1` (stereo unspecified), for which the GI50 in assay [1] is 92.5 µM (inactive); in assay [3] it was 42.1 µM (inactive); in assay [4] it was 29.2 µM (inactive); in assay [5], > 100 µM (inactive); in assay [6] it was 44.9 µM (inactive); in assay [7] it was 54.6 µM (inactive). Besides, the GI50 in assay [8] is > 100 µM (inactive); in [9], 46.6 µM (inactive); in assay [10] it was 17.9 µM (inactive); in assay [11], 65 µM (inactive); in [12], 44.3 µM (inactive); in assay [13], 39.1 µM (inactive). Further, the 50% growth inhibitory concentration (GI50) was 44.3 µM in [14]; > 100 µM (inactive) in assay [15]; > 100 µM (inactive) in assay [16]; 47.2 µM (inactive) in assay [17]; 32.3 µM (inactive) in assay [20]; 50.2 µM (inactive) in assay [18]. Besides, the GI50 in [19] is 17.3 µM (inactive).

Consider `O=[N+]([O-])/C(Cl)=C(/C(Cl)=C(Cl)Cl)N1CCOCC1`, for which the GI50 in assay [1] was 1.44 µM (inactive); in [2], 1.8 µM (inactive); in assay [3], 1.92 µM (inactive); in assay [5], 2.99 µM (inactive); in [6] it was 2.44 µM (inactive); in [7] it was 2.46 µM (inactive). For the same molecule, the GI50 in [8] is 5.51 µM (inactive); in assay [9], 3.86 µM (inactive); in [10] it was 2 µM (inactive); in [11], 3.29 µM (inactive); in [12] it was 2.94 µM (inactive); in [13], 2.61 µM (inactive). Also, the GI50 is 1.56 µM in assay [14]; 7.93 µM (inactive) in assay [15]; 3.09 µM (inactive) in assay [16]; 13.7 µM (inactive) in [17]; 1.65 µM (inactive) in assay [20]; 4.34 µM (inactive) in assay [18]. The GI50 in assay [19] is 2.13 µM (inactive).

Consider `COC1(OC)N=C(N)C2(C#N)C(c3ccccc3)NC3=C(CCC3)C12C#N` (stereo unspecified), for which the GI50 in assay [1], in assay [2], in [3], in assay [4], in assay [5] and in assay [6] was > 100 µM (inactive) throughout. The GI50 in assay [7], in assay [8], in assay [9], in [10], in assay [11] and in [12] was > 100 µM (inactive) in each case. For the same molecule, the GI50 was > 100 µM (inactive) in assay [13]; over 100 µM in assay [14]; > 100 µM (inactive) in [15]; > 100 µM (inactive) in [16]; > 100 µM (inactive) in assay [17]; > 100 µM (inactive) in [20]. In addition, in [18], the GI50 was > 100 µM (inactive).

Turning to `COC(=O)/C(C#N)=C(\Nc1ccccc1)N1CCCCC1`, the GI50 in [1], in assay [3], in assay [4], in assay [5], in [6] and in assay [7] was > 100 µM (inactive) each time. The GI50 in assay [8], in assay [9], in [10], in assay [11], in assay [12] and in assay [13] was > 100 µM (inactive) each time. The concentration for 50% growth inhibition (GI50) in [14] was over 100 µM; in assay [15], > 100 µM (inactive); in assay [16] it was > 100 µM (inactive); in assay [17] it was > 100 µM (inactive); in [20], > 100 µM (inactive); in assay [18], > 100 µM (inactive). Besides, the GI50 in assay [19] was > 100 µM (inactive).
